“Also recorded” adds a separate entry of the source.
What was measured:
LRP = LRP (Homo sapiens, UniProt Q07954); assay: ELISA of LRP binding to APPs770 captured on zinc-coated wells; details: LRP 25 nM, RAP 0.2-450 nM
Experimental: In panel A, zinc-coated wells (∘) or zinc-coated wells incubated with APPs770 (●) were incubated with the APPs770 monoclonal antibody 7H5. In panel B, increasing concentrations of LRP (0.14-300 nM) were incubated for 18 h at 4° C. with zinc-coated wells (∘) or zinc-coated wells with captured APPs770 (●). Panel C, LRP (25 nM) was incubated with zinc-coated wells (∘) or zinc-coated wells with captured APPs770 (●) in the presence of increasing concentrations of RAP (0.2-450 nM). Bound receptor was detected with the monoclonal LRP antibody 8G1. In the absence of LRP there was no binding of 8G1 IgG to APPs770-coated wells. Plotted values represent means of duplicate determinations.

[1] = test system: LRP-expressing (MEF) cells; assay: Cellular internalization and degradation of 125I-labeled ligands by LRP-expressing mouse fibroblasts; assay type: cell-based
Experimental: (§1) Wells containing 2×10^5 LRP-expressing (MEF) or LRP-deficient (PEA13) cells were incubated with various concentrations (0.37-10 nM) of ^125I-APPs770 (Panels A and B) or 125I-APPs695 (Panels C and D) for 10 h at 37° C. in the absence of competitor (●) or in the presence of either 1 μM RAP (∘), or 100 μg/ml heparin (□). The cellular degradation of ^125I-labeled APPs770 by LRP-expressing MEF cells is shown in panel A and by LRP-deficient PEA13 cells in panel B. The cellular degradation of ^125I-APPs695 by LRP-expressing cells is depicted in panel C and by LRP-deficient cells in panel D. Plotted values represent means of duplicate determinations. Inset to panel B, autoradiogram of ^125I-labeled APPs770 (lane 1) and APPs695 (lane 2). The migration position of molecular mass standards are indicated on the right in kDa.
Wells containing 2×10^5 LRP-expressing (●) or LRP-deficient (∘) mouse fibroblasts were incubated with ^125I-LDL (8 μg/ml) or ^125I-α2M* (1.4 nM) for selected time intervals. […] Shown are the amounts of ^125I-LDL internalized (panel A) and degraded (panel B), ^125I-α2M* internalized (panel C) and degraded (panel D). The plotted values represent means of duplicate determinations.
Mouse fibroblasts (2×10^5 cells per well) were incubated for selected times with ^125I-APPs770 (1 nM) in the absence of competitor (●) or in the presence of either 1 μM RAP (∘), or 100 μg/ml heparin (□). The amount of radioactivity internalized and degraded was determined at the indicated time intervals. […] The plotted values are means of duplicate determinations.
Mouse fibroblasts (2×10^5 cells/well) were incubated for 18 h at 37° C. with ^125I-APPs770 (10 nM) in the absence of competitor or in the presence of either heparin (100 μg/ml), chloroquine (0.1 mM), RAP (1 μM), affinity purified anti-LRP IgG (100 μg/ml), or control IgG against the cytoplasmic domain of LRP (100 μg/ml). Panels show the amount of ^125I-APPs770 degraded by mouse fibroblasts expressing LRP (A) or ones deficient in LRP expression (B). The data shown are means of duplicate determinations±S. E.
Wells containing 2×10^5 LRP-expressing (MEF) or LRP-deficient (PEA13) cells were incubated with ^125I-APPs770 (5 nM) or ^125I-APPs770:FIXa (3 nM) for 18 h at 37° C. in the absence of competitor or in the presence of 1 μM RAP. The amount of ^125I-labeled APPs770 or ^125I-APPs770:Factor IXa degraded by LRP-expressing MEF cells is shown in panel A and that by LRP-deficient PEA13 cells in panel B. Plotted values represent means of duplicate determinations.
Mouse fibroblasts (2×10^5) were incubated for 18 h at 37° C. with ^125I-APP/PN-2 (8.8 nM) in the absence of competitor or in the presence of either RAP (1 μM)), 10 μg/ml apoE3/βVLDL, 10 μg/ml apoE4/βVLDL, or 10 μg/ml βVLDL. […]

[2] = test system: LRP-deficient (PEA13) cells; assay: Cellular internalization and degradation of 125I-labeled ligands by LRP-deficient mouse fibroblasts; assay type: cell-based
Experimental: as §1
Wells containing 2×10^5 LRP-expressing (●) or LRP-deficient (∘) mouse fibroblasts were incubated with ^125I-LDL (8 μg/ml) or ^125I-α2M* (1.4 nM) for selected time intervals. […]
Mouse fibroblasts (2×10^5 cells per well) were incubated for selected times with ^125I-APPs770 (1 nM) in the absence of competitor (●) or in the presence of either 1 μM RAP (∘), or 100 μg/ml heparin (□). The amount of radioactivity internalized and degraded was determined at the indicated time intervals. […]

Sequence of LRP (Q07954 20-3943 limits assumed): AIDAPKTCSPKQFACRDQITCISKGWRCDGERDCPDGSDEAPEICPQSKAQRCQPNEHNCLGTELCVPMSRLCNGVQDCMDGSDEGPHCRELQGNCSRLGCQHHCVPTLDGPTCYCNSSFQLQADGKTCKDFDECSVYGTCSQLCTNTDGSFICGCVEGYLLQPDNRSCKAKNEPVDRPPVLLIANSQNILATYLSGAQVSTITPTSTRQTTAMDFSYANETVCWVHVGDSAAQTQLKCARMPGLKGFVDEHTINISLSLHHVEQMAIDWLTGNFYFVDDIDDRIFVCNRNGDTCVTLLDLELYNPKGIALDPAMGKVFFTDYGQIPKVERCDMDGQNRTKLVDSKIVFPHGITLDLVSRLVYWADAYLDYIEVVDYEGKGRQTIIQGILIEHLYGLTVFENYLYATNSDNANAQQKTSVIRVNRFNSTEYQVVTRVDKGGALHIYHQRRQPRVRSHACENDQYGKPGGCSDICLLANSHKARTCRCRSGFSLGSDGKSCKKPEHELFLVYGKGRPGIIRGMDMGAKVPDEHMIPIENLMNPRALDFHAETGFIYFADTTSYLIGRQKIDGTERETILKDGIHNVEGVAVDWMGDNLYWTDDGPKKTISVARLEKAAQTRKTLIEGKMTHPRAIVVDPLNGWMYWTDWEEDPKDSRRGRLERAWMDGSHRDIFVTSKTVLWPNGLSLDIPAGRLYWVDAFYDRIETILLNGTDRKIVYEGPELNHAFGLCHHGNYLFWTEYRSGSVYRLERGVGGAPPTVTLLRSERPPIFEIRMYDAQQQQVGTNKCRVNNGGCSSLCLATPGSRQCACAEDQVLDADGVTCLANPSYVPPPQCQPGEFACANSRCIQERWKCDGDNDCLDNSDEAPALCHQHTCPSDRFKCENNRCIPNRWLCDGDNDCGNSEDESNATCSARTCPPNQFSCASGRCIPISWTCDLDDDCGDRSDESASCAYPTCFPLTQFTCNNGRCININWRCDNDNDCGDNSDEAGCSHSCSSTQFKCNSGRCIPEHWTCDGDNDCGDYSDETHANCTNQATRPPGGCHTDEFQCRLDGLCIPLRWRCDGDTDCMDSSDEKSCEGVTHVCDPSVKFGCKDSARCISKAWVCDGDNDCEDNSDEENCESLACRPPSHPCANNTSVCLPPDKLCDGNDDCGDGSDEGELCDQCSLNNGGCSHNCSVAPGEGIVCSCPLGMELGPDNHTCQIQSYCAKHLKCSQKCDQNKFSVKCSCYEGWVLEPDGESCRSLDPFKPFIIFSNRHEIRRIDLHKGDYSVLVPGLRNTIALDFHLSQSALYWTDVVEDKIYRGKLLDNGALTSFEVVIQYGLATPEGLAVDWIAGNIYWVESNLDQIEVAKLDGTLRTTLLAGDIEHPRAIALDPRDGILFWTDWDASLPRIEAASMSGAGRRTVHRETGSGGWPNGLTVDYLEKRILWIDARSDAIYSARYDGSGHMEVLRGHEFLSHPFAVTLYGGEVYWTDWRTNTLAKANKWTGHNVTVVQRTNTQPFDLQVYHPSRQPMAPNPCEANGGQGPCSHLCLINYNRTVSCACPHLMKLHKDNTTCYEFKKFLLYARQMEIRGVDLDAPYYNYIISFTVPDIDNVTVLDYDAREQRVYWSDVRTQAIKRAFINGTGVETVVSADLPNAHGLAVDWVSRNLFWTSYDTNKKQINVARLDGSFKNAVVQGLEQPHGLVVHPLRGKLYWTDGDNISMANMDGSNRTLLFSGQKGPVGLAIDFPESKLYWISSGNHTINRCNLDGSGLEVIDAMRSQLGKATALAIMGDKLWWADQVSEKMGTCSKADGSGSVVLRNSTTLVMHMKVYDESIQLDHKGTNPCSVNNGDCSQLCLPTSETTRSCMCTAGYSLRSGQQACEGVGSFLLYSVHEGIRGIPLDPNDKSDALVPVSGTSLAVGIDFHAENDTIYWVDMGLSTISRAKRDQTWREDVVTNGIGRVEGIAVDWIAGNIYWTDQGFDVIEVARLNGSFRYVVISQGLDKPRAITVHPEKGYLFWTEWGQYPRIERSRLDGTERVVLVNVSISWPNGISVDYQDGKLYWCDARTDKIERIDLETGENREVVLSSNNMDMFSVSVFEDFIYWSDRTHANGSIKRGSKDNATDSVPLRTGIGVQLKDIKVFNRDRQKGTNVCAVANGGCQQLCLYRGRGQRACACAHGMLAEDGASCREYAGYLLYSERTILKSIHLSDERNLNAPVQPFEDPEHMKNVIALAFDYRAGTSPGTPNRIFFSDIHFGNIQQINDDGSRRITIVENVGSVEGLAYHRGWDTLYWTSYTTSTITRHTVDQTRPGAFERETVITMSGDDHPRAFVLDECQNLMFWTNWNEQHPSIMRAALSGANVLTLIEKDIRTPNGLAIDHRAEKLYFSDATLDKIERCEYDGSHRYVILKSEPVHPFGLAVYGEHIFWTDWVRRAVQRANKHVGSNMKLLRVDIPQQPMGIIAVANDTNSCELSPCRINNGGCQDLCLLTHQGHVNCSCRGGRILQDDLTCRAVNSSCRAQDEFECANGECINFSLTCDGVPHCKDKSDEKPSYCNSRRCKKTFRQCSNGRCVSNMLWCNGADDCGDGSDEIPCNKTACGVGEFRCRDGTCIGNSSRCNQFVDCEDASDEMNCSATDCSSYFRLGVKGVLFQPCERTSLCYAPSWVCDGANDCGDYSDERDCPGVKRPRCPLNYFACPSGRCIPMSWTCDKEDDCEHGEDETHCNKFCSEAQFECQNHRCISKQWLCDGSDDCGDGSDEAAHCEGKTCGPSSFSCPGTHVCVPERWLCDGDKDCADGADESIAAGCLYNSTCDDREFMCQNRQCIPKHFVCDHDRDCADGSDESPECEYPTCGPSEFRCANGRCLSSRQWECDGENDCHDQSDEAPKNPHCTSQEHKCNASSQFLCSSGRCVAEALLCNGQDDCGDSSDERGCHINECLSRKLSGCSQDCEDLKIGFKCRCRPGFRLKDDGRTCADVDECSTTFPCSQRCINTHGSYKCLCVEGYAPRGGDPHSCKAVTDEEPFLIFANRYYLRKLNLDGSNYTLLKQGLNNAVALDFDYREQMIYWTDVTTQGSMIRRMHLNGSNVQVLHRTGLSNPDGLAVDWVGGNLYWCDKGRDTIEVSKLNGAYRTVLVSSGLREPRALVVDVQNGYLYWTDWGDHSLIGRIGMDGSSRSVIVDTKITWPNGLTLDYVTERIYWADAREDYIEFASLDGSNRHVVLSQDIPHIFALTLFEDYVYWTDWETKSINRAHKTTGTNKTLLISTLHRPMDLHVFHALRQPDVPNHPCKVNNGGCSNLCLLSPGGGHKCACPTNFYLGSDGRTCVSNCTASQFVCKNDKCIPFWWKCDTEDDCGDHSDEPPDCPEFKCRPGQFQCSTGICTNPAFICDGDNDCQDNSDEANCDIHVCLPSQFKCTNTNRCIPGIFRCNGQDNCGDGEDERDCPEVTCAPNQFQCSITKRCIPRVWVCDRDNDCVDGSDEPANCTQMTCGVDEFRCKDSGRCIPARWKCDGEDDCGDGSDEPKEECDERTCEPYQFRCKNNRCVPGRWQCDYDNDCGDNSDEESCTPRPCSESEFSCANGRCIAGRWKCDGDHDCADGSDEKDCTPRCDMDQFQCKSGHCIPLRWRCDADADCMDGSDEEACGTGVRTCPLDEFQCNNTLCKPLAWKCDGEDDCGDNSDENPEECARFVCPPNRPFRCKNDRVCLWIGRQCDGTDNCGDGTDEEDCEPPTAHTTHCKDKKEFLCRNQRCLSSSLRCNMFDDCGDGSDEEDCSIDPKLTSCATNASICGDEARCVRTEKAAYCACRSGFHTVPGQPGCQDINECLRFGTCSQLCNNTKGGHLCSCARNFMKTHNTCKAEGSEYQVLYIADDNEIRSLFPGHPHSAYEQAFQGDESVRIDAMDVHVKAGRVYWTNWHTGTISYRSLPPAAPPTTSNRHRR
Sequence of LRP (Q07954 3944-4544 partner limits assumed): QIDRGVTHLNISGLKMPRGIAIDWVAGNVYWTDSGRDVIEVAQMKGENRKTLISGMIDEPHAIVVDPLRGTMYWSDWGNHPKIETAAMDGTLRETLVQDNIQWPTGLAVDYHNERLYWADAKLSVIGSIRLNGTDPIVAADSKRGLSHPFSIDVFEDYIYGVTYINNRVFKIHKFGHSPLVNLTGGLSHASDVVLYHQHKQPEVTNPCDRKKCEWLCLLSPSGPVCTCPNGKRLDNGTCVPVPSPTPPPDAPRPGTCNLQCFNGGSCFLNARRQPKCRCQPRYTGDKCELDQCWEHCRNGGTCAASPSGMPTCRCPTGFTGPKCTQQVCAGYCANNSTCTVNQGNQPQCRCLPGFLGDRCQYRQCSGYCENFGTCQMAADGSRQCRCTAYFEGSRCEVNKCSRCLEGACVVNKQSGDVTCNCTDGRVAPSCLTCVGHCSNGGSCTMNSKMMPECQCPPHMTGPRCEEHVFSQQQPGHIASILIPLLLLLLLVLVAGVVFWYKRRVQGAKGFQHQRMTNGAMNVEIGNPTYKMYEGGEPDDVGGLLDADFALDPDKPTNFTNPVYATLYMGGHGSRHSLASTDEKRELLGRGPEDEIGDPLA

## RAP: 39 kDa receptor associated protein that binds members of the LDL receptor family and blocks their ligand binding capacity
LRP
  inhibition of APP binding to LRP: inhibition of APP binding
[1]; 18 h at 37° C., 125I-APP/PN-2 8.8 nM, 10 μg/ml apoE/βVLDL or RAP 1 μM, F(4,15)=21.65, p=0.0001, p<0.05 vs βVLDL alone, RAP p<0.001
  inhibition of 125I-APPs770 degradation by apoE isoforms/βVLDL or RAP: statistically significant
[1]; LRP-containing fibroblasts, RAP 1 μM, anti-LRP IgG 100 μg/ml
  inhibition of catabolism/degradation of APP (125I-APPs770) by added competitor: inhibition of catabolism of APP; also recorded: inhibition of degradation

## heparin
[1]; LRP-containing fibroblasts, 125I-APPs770 1 nM, heparin 100 μg/ml
  inhibition of internalization of APP (125I-APPs770): inhibition of internalization of APP
[2]; 125I-APPs770 1 nM, heparin 100 μg/ml
  inhibition of internalization of APP (125I-APPs770): inhibition of internalization of APP

B1: α2-macroglobulin: 125I-labeled α2-macroglobulin, LRP ligand control (protein, UniProt P01023 24-1474, looked up)
Alpha-2-macroglobulin: SVSGKPQYMVLVPSLLHTETTEKGCVLLSYLNETVTVSASLESVRGNRSLFTDLEAENDVLHCVAFAVPKSSSNEEVMFLTVQVKGPTQEFKKRTTVMVKNEDSLVFVQTDKSIYKPGQTVKFRVVSMDENFHPLNELIPLVYIQDPKGNRIAQWQSFQLEGGLKQFSFPLSSEPFQGSYKVVVQKKSGGRTEHPFTVEEFVLPKFEVQVTVPKIITILEEEMNVSVCGLYTYGKPVPGHVTVSICRKYSDASDCHGEDSQAFCEKFSGQLNSHGCFYQQVKTKVFQLKRKEYEMKLHTEAQIQEEGTVVELTGRQSSEITRTITKLSFVKVDSHFRQGIPFFGQVRLVDGKGVPIPNKVIFIRGNEANYYSNATTDEHGLVQFSINTTNVMGTSLTVRVNYKDRSPCYGYQWVSEEHEEAHHTAYLVFSPSKSFVHLEPMSHELPCGHTQTVQAHYILNGGTLLGLKKLSFYYLIMAKGGIVRTGTHGLLVKQEDMKGHFSISIPVKSDIAPVARLLIYAVLPTGDVIGDSAKYDVENCLANKVDLSFSPSQSLPASHAHLRVTAAPQSVCALRAVDQSVLLMKPDAELSASSVYNLLPEKDLTGFPGPLNDQDNEDCINRHNVYINGITYTPVSSTNEKDMYSFLEDMGLKAFTNSKIRKPKMCPQLQQYEMHGPEGLRVGFYESDVMGRGHARLVHVEEPHTETVRKYFPETWIWDLVVVNSAGVAEVGVTVPDTITEWKAGAFCLSEDAGLGISSTASLRAFQPFFVELTMPYSVIRGEAFTLKATVLNYLPKCIRVSVQLEASPAFLAVPVEKEQAPHCICANGRQTVSWAVTPKSLGNVNFTVSAEALESQELCGTEVPSVPEHGRKDTVIKPLLVEPEGLEKETTFNSLLCPSGGEVSEELSLKLPPNVVEESARASVSVLGDILGSAMQNTQNLLQMPYGCGEQNMVLFAPNIYVLDYLNETQQLTPEIKSKAIGYLNTGYQRQLNYKHYDGSYSTFGERYGRNQGNTWLTAFVLKTFAQARAYIFIDEAHITQALIWLSQRQKDNGCFRSSGSLLNNAIKGGVEDEVTLSAYITIALLEIPLTVTHPVVRNALFCLESAWKTAQEGDHGSHVYTKALLAYAFALAGNQDKRKEVLKSLNEEAVKKDNSVHWERPQKPKAPVGHFYEPQAPSAEVEMTSYVLLAYLTAQPAPTSEDLTSATNIVKWITKQQNAQGGFSSTQDTVVALHALSKYGAATFTRTGKAAQVTIQSSGTFSSKFQVDNNNRLLLQQVSLPELPGEYSMKVTGEGCVYLQTSLKYNILPEKEEFPFALGVQTLPQTCDEPKAHTSFQISLSVSYTGSRSASNMAIVDVKMVSGFIPLKPTVKMLERSNHVSRTEVSSNHVLIYLDKVSNQTLSLFFTVLQDVPVRDLKPAIVKVYDYYETDEFAIAEYNAPCSKDLGNA
modifications: 125I label
notes: 125I-labeled α2-macroglobulin, LRP ligand control
[1]; LRP-containing fibroblasts, 37° C., no competitor
  catabolism (internalization and degradation) of 125I-labeled ligand by cells: internalization and degradation
[2]; 37° C., no competitor
  catabolism (internalization and degradation) of 125I-labeled ligand by cells: lack of both internalization and degradation

From patent publication US6447775B1, “Modulators of expression and function of LRP in Alzheimer's disease” (The General Hospital Corporation, priority 1995, dated 2002)
